Reference: PubChem BioAssay (NCI)
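A five-concentration, 48-hour dose response in 96-well plates underlies each endpoint, interpolated linearly between surrounding concentrations. TGI is the concentration that stops growth completely.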

Assays:
Experiment in all cases: inhibition of tumour cell growth, NCI panel, 48 h
UO-31 renal = tested on: UO-31 renal
COLO 205 colon = tested on: COLO 205 colon
SK-MEL-5 melanoma = tested on: SK-MEL-5 melanoma
DU-145 prostate = tested on: DU-145 prostate
MOLT-4 leukemia = tested on: MOLT-4 leukemia
LOX IMVI melanoma = tested on: LOX IMVI melanoma
PC-3 prostate = tested on: PC-3 prostate
NCI/ADR-RES ovarian = tested on: NCI/ADR-RES ovarian
MDA-N = tested on: MDA-N
MCF7 breast = tested on: MCF7 breast
SNB-19 CNS = tested on: SNB-19 CNS
HCT-15 colon = tested on: HCT-15 colon
SK-MEL-2 melanoma = tested on: SK-MEL-2 melanoma
HL-60(TB) leukemia = tested on: HL-60(TB) leukemia
ACHN renal = tested on: ACHN renal
MALME-3M melanoma = tested on: MALME-3M melanoma
NCI-H522 lung = tested on: NCI-H522 lung
SF-295 CNS = tested on: SF-295 CNS

Row | SMILES | TGI (UO-31 renal) | TGI (COLO 205 colon) | TGI (SK-MEL-5 melanoma) | TGI (DU-145 prostate) | TGI (MOLT-4 leukemia) | TGI (LOX IMVI melanoma) | TGI (PC-3 prostate) | TGI (NCI/ADR-RES ovarian) | TGI (MDA-N) | TGI (MCF7 breast) | TGI (SNB-19 CNS) | TGI (HCT-15 colon) | TGI (SK-MEL-2 melanoma) | TGI (HL-60(TB) leukemia) | TGI (ACHN renal) | TGI (MALME-3M melanoma) | TGI (NCI-H522 lung) | TGI (SF-295 CNS)
1 | CC(NC(=O)OC(C)(C)C)C(=O)C(N)=O (centres undefined) | > 100 µM | > 100 µM | > 100 µM | > 100 µM | > 100 µM | > 100 µM | > 100 µM | > 100 µM | > 100 µM | > 100 µM | > 100 µM | > 100 µM | > 100 µM | > 100 µM | > 100 µM | – | – | –
2 | ClC1=C(Cc2ccccc2)Cc2ccc3c(c21)CCC3 | 69.6 µM | 26.2 µM | 40.6 µM | > 100 µM | 39.8 µM | 32.9 µM | > 100 µM | – | > 100 µM | 37.7 µM | 52 µM | > 100 µM | – | 41.5 µM | > 100 µM | 59.7 µM | 39.5 µM | 91.8 µM
3 | O=C(NCCO)Nc1c(C(F)(F)F)cc(-c2ccccc2)[nH]c1=O | > 100 µM | > 100 µM | > 100 µM | > 100 µM | > 100 µM | > 100 µM | > 100 µM | > 100 µM | > 100 µM | > 100 µM | > 100 µM | > 100 µM | > 100 µM | > 100 µM | > 100 µM | – | – | > 100 µM
4 | COc1nc2sc3c(c2c(=O)n1CCCSSCCCn1c(OC)nc2sc4c(c2c1=O)CCCC4)CCCC3 | > 100 µM | > 100 µM | > 100 µM | > 100 µM | > 100 µM | > 100 µM | > 100 µM | > 100 µM | > 100 µM | > 100 µM | > 100 µM | > 100 µM | > 100 µM | – | > 100 µM | > 100 µM | > 100 µM | > 100 µM
5 | CC(C)NCC(O)c1ccc(OCc2ccccc2)c(OCc2ccccc2)c1-c1ccccc1 (centres undefined) | 7.82 µM | 3.2 µM | 2.5 µM | 3.14 µM | 4.55 µM | 13.8 µM | 3.11 µM | 3.73 µM | 3.1 µM | 3.22 µM | 4.07 µM | 3.22 µM | 4.18 µM | – | 3.06 µM | 3.16 µM | 3.16 µM | 3.55 µM
6 | CCOC(=O)c1c(-c2ccc(OC)cc2)c(C#N)c(=S)n(C2OC(CO)C(O)C(O)C2O)c1-c1ccccc1 (centres undefined) | > 100 µM | > 100 µM | 26.5 µM | > 100 µM | 96.5 µM | > 100 µM | > 100 µM | > 100 µM | > 100 µM | > 100 µM | > 100 µM | > 100 µM | > 100 µM | > 100 µM | > 100 µM | > 100 µM | – | > 100 µM
7 | CC(=O)OCC1OC(n2c(N)c(C#N)c(-c3ccc(C)cc3)c(C#N)c2=S)C(OC(C)=O)C(OC(C)=O)C1OC(C)=O (centres undefined) | 31.8 µM | 29.4 µM | 23.2 µM | 28.7 µM | – | > 100 µM | > 100 µM | 91.9 µM | 30.9 µM | 51.3 µM | 34.8 µM | > 100 µM | 28.5 µM | > 100 µM | > 100 µM | 33 µM | – | 73.8 µM
